Converted amounts (≈) assume the structure as drawn.
Tested on: Streptococcus sp. 'group A'
Assay: Antibacterial activity against group A streptococcus MGAS2221 after 12 hrs by microscopic count analysis
Format: functional
Details: MGAS2221, 12 h

| SMILES | MIC [µM] |
| --- | --- |
| O=C1NN=CC1CCC/N=C/c1cc(Cl)cc(Cl)c1O (configuration not stated) | 10 (≈ 3.14 µg/mL) |
| OCC/N=C/c1cc(Cl)cc(Cl)c1O | 20 (≈ 4.68 µg/mL) |
| Oc1c(Cl)cc(Cl)cc1/C=N/CC1CCCO1 (configuration not stated) | 20 (≈ 5.48 µg/mL) |
| O=C1NN=CC1CCC/N=C/c1cc(Br)ccc1O (configuration not stated) | 40 (≈ 13 µg/mL) |

Continued, values first:

| MIC [µM] | SMILES |
| --- | --- |
| 20 (≈ 3.82 µg/mL) | O=Cc1cc(Cl)cc(Cl)c1O |
| 10 (≈ 4.88 µg/mL) | Oc1c(Cl)cc(Cl)cc1/C=N/CC1CCC(C/N=C/c2cc(Cl)cc(Cl)c2O)CC1 (configuration not stated) |
| 50 (≈ 19.1 µg/mL) | Cc1ccc([N+](=O)[O-])c(NC(=O)NC(=O)c2c(Cl)cccc2Cl)c1C |
